Results on one compound are retold here after article PMC8557901 (Microbiology Spectrum, 2021).

The subject of data set [1] is P. yoelii liver-stage parasites in murine primary hepatocytes. In words: In vitro liver-stage development, P. yoelii in murine primary hepatocytes. The class given is cell-based, Plasmodium yoelii. From the text:
P. yoelii 230-GFP-Luc sporozoites are mutant parasites expressing a green fluorescent protein (GFP)-luciferase cassette generated by the gene out marker out (GOMO) strategy ([39]).
(§1) Primary human hepatocytes were isolated from liver segments obtained from adult patients undergoing partial hepatectomy (Service de Chirurgie Digestive, Hépato-Bilio Pancréatique, Hôpital Pitié Salpêtrière, Paris, France). Primary simian hepatocytes were isolated from liver segments collected from healthy Macaca fascicularis monkeys from CEA, Fontenay aux Roses, France. All hepatocytes were obtained using collagenase perfusion as previously described ([40]). […] Primary murine hepatocytes were isolated from liver segments collected from BALB/c mice. Human and murine hepatocytes were used directly after their isolation. Cells were seeded in 96-well plates (Falcon; Becton Dickinson Labware Europe, France) coated with collagen I (BD Bioscience, USA) at a density of 80,000 cells per well. […] For human hepatocytes, the complete medium was supplemented with 2% dimethyl sulfoxide (DMSO; Sigma-Aldrich, USA) before infection to preserve their differentiation.
(§2) On the day of infection, 3 · 10^4 sporozoites of P. falciparum, P. yoelii, and P. cynomolgi were added to their respective host cell cultures (human, murine, and simian). The infected culture plates were centrifuged for 10 min at 900 × g, allowing fast parasite sedimentation, and further incubated with serial dilutions of M1. Culture medium containing the appropriate drug concentration was refreshed daily, and cells were fixed at 48 h postinfection (p.i.) for infections with P. yoelii, 6 days p.i. for P. falciparum, or 8 days p.i. for P. cynomolgi. For the in vitro sporozoite invasion experiments, P. falciparum sporozoites were preincubated with 1, 10, and 100 μM M1 for 1 h at room temperature before hepatocyte infections. Three hours later, after sporozoite penetration into hepatocytes, cultures were washed and then further incubated with or without the presence of the drug during 6 days. DMSO was used as a negative control.
(§3) The number, size, and shape of the parasites were determined using a CellInsight high-content screening platform equipped with Studio HCS software (ThermoFisher Scientific). […] Host cell and parasite nuclei were labeled with DAPI (4′,6-diamidino-2-phenylindole). […] The custom script used for counting and measuring parasites first required identification of the objects based on a fluorescence intensity threshold. The object identity was then further validated based on size and morphological (shape) criteria. The presence of DAPI-associated fluorescence in the selected objects allowed their final selection and the rejection of false positives. […] The parasitic size reduction was calculated on the average object area using the total surface area of each selected object (μm^2).

The subject of data set [2] is P. falciparum liver-stage parasites in human primary hepatocytes. Nature of the data set: In vitro liver-stage development, P. falciparum in human primary hepatocytes. Type of data set: cell-based, Plasmodium falciparum.
From the text: as §1, §2, §3

Data set [3] can be described thus: MTT cell viability assay, murine primary hepatocytes. The class given is cell-based, BALB/c mice. The settings on record: BALB/c, mouse. From the text:
Primary human hepatocytes were isolated from liver segments obtained from adult patients undergoing partial hepatectomy (Service de Chirurgie Digestive, Hépato-Bilio Pancréatique, Hôpital Pitié Salpêtrière, Paris, France). Primary simian hepatocytes were isolated from liver segments collected from healthy Macaca fascicularis monkeys from CEA, Fontenay aux Roses, France. All hepatocytes were obtained using collagenase perfusion as previously described ([40]). Simian hepatocytes were immediately cryopreserved with a Nicool-Freezal controlled rate freezer (Air Liquide Santé, Marne la Vallée, France) and then used when needed after fast thawing at 37°C. Primary murine hepatocytes were isolated from liver segments collected from BALB/c mice. Human and murine hepatocytes were used directly after their isolation. Cells were seeded in 96-well plates (Falcon; Becton Dickinson Labware Europe, France) coated with collagen I (BD Bioscience, USA) at a density of 80,000 cells per well. […]
The toxicity of M1 toward primary hepatocytes and HepG2-CD81 cells was evaluated through the MTT {[3-(4,5-dimethyl-2-thiazolyl)-2,5-diphenyl-2H-tetrazolium bromide]} test ([42]). […] Then, MTT was replaced by a mixture of DMSO-ethanol (1:1) to dissolve formazan crystals and the absorbance was read at 540 nm on a FlexStation plate reader.
In general terms: Tetrazolium dyes change colour on reduction, which living cells bring about.

The test system of data set [4] is P. falciparum F32-ART5 (artemisinin-resistant). Nature of the data set: Standard in vitro chemosensitivity assay (hypoxanthine uptake), F32-ART5. The class given is cell-based. The settings on record: Plasmodium falciparum, F32, 48 h, read-out: Mean EC50 ± SD. On the procedure:
The Plasmodium falciparum artemisinin-resistant strain F32-ART5 and its twin artemisinin-sensitive line F32-TEM ([30], [31]) were cultivated at 37°C with 5% CO2 in human red blood cells (EFS [French Blood Bank]) diluted to 2% hematocrit in RPMI 1640 medium supplemented with 5% human serum (EFS) as previously reported ([47]).
In vitro susceptibility of P. falciparum parasites was determined by using the standard hypoxanthine uptake inhibition assay as described previously ([51]) with some modifications ([52]). After D-sorbitol treatment, parasites synchronized at the ring stage were exposed for 48 h, with [^3H]hypoxanthine (Perkin Elmer, France), to a range of concentrations of the different tested compounds. […] Each result represents 3 independent experiments.

As a reminder, the EC50 is the concentration needed to bring the measured effect to its halfway point. A word on the CC50: it is the concentration giving 50% cytotoxicity. A higher CC50 goes with lower toxicity to the cells.

Take `Cc1ccc(-c2cc3nc(NC(C)(C)C)[nH]c(=O)c3s2)cc1` [Metabolite M1, 2-(tert-Butylamino)-6-(p-tolyl)thieno[3,2-d]pyrimidin-4(3H)-one]: the concentration for a half-maximal effect (EC50) in data set [1] (Plasmodium yoelii, Hepatocyte, P. yoelii in murine primary hepatocytes (MH), mean ± SEM of triplicate experiments, read-out: EC50 against liver-stage parasites) turned out to be 450 ± 100 nM; in data set [2] (Plasmodium falciparum, Hepatocyte, P. falciparum in human primary hepatocytes (HH), mean ± SEM of triplicate experiments, read-out: EC50 against liver-stage parasites), 450 ± 150 nM; in data set [4], 227 ± 40 nM. Moreover, the “SI (selectivity index)” value in data set [1] (hepatocyte CC50/EC50, P. yoelii (MH)) is over 133; in data set [2] (hepatocyte CC50/EC50, P. falciparum (HH)), over 133. Also, the “Size reduction at 10 μM (%)” value in data set [1] (parasite (schizont) size, 10 μM, P. yoelii (MH)) is listed as 100%; in data set [2] (parasite (schizont) size, 10 μM, P. falciparum (HH)) it was 80%. In addition, in data set [2] (P. falciparum in human hepatocytes), the “concentration from which liver-stage development was fully inhibited” value was found to be 14 µM. The compound further had a half-maximal cytotoxic concentration (CC50) at 2 days in data set [3] of over 60000 nM.
